pIC50: −log10 of the molar value.
target: T1, Human eIF4E (Homo sapiens, UniProt P06730); assay: Human eIF4E/4G2 binding assay (TR-FRET); details: purified human eIF4E (aa 28-217), biotin labeled 4G2 peptide, 4 hours preincubation at room temperature
T1 construct: Human eIF4E (aa 28-217) with a C-terminal His-tag; made in house
Description: Example 3. Compound Testing in Human eIF4E/4G2 Binding Assay
Human eIF4E (aa 28-217) with a C-terminal His-tag was expressed in E. coli in inclusion bodies. The protein was solubilized with 8 M urea and purified under denaturing conditions using nickel-charged HisTrap HP columns (GE Healthcare). The purified protein was then refolded by diluting in 20 mM Hepes pH 7.0, 0.5 M NaCl, 1 mM DTT, 1 mM EDTA, 0.5 M arginine plus 6 M urea, and then dialyzing overnight into the same buffer without the urea. The protein was further dialyzed into 20 mM Hepes, pH 6.5, 50 mM NaCl, 1 mM EDTA, 1 mM DTT, and concentrated using Hitrap SP sepharose FF columns (GE Healthcare). The concentrated protein was dialyzed into 20 mM Hepes, pH 7.0, 0.5 M NaCl, 5 mM DTT and 10% glycerol, and stored at -80° C. until use.
Test compounds (3.43 mM stock in DMSO) were diluted 2-fold in series in DMSO (10 concentration points). Compound solutions (1.2 µl/well) were added into black 384-well polypropylene microplates (Matrix, Thermal Scientific). Twenty-two microliters per well of Assay Buffer (50 mM NaPi, pH 6.5, 50 mM KCl, 1 mM DTT and 0.5 mg/ml gamma globulin) and eight microliters per well of 82.5 nM purified eIF4E in Assay Buffer were added. The samples were incubated at room temperature (20-23° C.) for 4 hours. Biotin labeled 4G2 peptide (Ac-Lys-Gln-Tyr-Asp-Arg-Glu-Phe-Leu-Leu-Asp-Phe-Gln-Phe-Met-Pro-Lys(Aha-Bio)-NH2, 1.75 µM stock in DMSO) was diluted to 0.14 µM in Assay Buffer (without DTT) and 5 µl/well was added. The samples were incubated at room temperature for 20 min. Five microliters per well of 6.4 nM Eu-streptavidin (Eu-SA, Perkin Elmer) and 80 nM Allophycocyanin (APC)-anti His antibody (Columbia Biosciences) in Assay Buffer (without DTT) were then added and the samples were incubated at room temperature for 20 min.
Assay signals were monitored by reading excitation at 340 nm and emission fluorescence at 615 nm and 665 nm on an Envision reader (Perkin Elmer). Normalized TR-FRET (time-resolved fluorescence resonance energy transfer) assay signal (Rn) was calculated by the formula: Rn = [(A-Ba-C x D)/(D-Bd)] x (Dc- Bd) • Where A is the fluorescence intensity of the sample at 665 nm, • D is the fluorescence intensity of the sample at 615 nm, • Ba and Bd are plate backgrounds at 665 nm and 615 nm, respectively, • Dc is the fluorescence intensity of 0.78 nM Eu-SA in the assay buffer at 615 nm • The cross-talk factor (C) is determined by the following formula: • C = (Ac- Ba)/(Dc-Bd) • Where Ac is the fluorescence intensity of 0.78 nM Eu-SA in the assay buffer at 665 nm.
IC50 values were calculated using xLFit program (IDBS). Table 2 below lists […] of some compounds, wherein A represents IC50 ≤ 0.5 µM; B represents 0.5 uM < IC50 ≤ 1 µM; and C represents IC50 > 1 µM.

T1 sequence (P06730 28-217): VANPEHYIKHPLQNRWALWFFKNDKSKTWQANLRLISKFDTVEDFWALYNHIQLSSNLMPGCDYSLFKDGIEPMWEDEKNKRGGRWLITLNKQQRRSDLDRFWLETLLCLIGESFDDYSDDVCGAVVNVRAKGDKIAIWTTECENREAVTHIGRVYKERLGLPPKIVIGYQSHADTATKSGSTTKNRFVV

Row | SMILES | pIC50
1 | CNCCOc1ccc(-c2nc(Nc3ncc(-c4cccs4)cc3C(=O)O)sc2CC(C)C)cc1Cl [I-3, 2-((4-(3-chloro-4-(2-(methylamino)ethoxy)phenyl)-5-isobutylthiazol-2-yl)amino)-5-(thiophen-2-yl)nicotinic acid] | < 6.00
2 | CC(C)Cc1sc(Nc2ncc(-c3cccs3)cc2C(=O)O)nc1-c1ccc(O)cc1 [I-13] | < 6.00
3 | CC(C)Cc1sc(Nc2ncc(-c3cccs3)cc2C(=O)O)nc1-c1ccc(OC(F)F)cc1 [I-15] | 6.00 to 6.30
4 | COc1ccc(-c2nc(Nc3ncc(-c4cccs4)cc3C(=O)O)sc2C2CC2)cc1 [I-18] | 6.00 to 6.30
5 | O=C(O)c1cc(-c2cccs2)cnc1Nc1nc(-c2ccc(OC3CC3)cc2)c(C2CC2)s1 [I-19] | 6.00 to 6.30
6 | COCCOc1ccc(-c2nc(Nc3cc(-c4ccccc4)sc3C(=O)O)sc2C2CC2)cc1 [I-20] | 6.00 to 6.30
7 | COc1ccc(-c2nc(Nc3cc(-c4ccccc4)sc3C(=O)O)sc2C2CC2)cc1 [I-21] | 6.00 to 6.30
8 | COCCOc1ccc(-c2nc(Nc3ncc(-c4cccs4)cc3C(=O)O)sc2C2CC2)cc1 [I-22] | 6.00 to 6.30
9 | COCCOc1ccc(-c2nc(Nc3cc(-c4ccccc4)sc3C(=O)O)sc2CC(C)C)cc1 [I-23] | 6.00 to 6.30
10 | O=C(O)c1sc(-c2ccccc2)cc1Nc1nc(-c2ccc(O)cc2)c(C2CC2)s1 [I-24] | < 6.00
11 | COc1ccc(-c2nc(Nc3cc(-c4ccccc4)sc3C(=O)O)sc2C2CC2)c(F)c1 [I-25] | 6.00 to 6.30
12 | COCCOc1ccc(-c2nc(Nc3ncc(-c4cccs4)cc3C(=O)O)sc2C2CC2)c(F)c1 [I-26] | < 6.00
13 | COc1ccc(-c2nc(Nc3ncc(-c4cccs4)cc3C(=O)O)sc2C2CC2)c(F)c1 [I-27] | 6.00 to 6.30
14 | COc1ccc(-c2nc(Nc3ncc(-c4cccs4)cc3C(=O)O)sc2C2CC2)cc1F [I-28] | 6.00 to 6.30
15 | COCCOc1ccc(-c2nc(Nc3ncc(-c4cccs4)cc3C(=O)O)sc2C2CC2)cc1F [I-29] | 6.00 to 6.30
16 | COCCOc1ccc(-c2nc(Nc3ncc(-c4cccs4)cc3C(=O)O)sc2C(C)C)cc1F [I-31] | 6.00 to 6.30
17 | COCCOc1ccc(-c2nc(Nc3ncc(-c4cccs4)cc3C(=O)O)sc2C2CCCC2)cc1F [I-32] | 6.00 to 6.30
18 | Cc1ccc(-c2cnc(Nc3nc(-c4ccc(OC(F)F)cc4)c(CC(C)C)s3)c(C(=O)O)c2)s1 [I-33] | < 6.00
19 | CCCc1sc(Nc2ncc(-c3cccs3)cc2C(=O)O)nc1-c1ccc(OCCOC)c(F)c1 [I-49] | 6.00 to 6.30
20 | COCCOc1ccc(-c2nc(Nc3ncc(-c4cccs4)cc3C(=O)O)sc2CCOC)cc1F [I-50] | 6.00 to 6.30
21 | COCCOc1ccc(-c2nc(Nc3ncc(-c4cccs4)cc3C(=O)OC)sc2CC(C)C)cc1F [I-53, methyl 2-((4-(3-fluoro-4-(2-methoxyethoxy)phenyl)-5-isobutylthiazol-2-yl)amino)-5-(thiophen-2-yl)nicotinate] | < 6.00
22 | COCCOc1ccc(-c2nc(Nc3ncc(-c4ccsc4)cc3C(=O)O)sc2CC(C)C)cc1F [I-55] | 6.00 to 6.30
23 | COCCOc1ccc(-c2nc(Nc3ncc(-c4ccco4)cc3C(=O)O)sc2CC(C)C)cc1F [I-57] | 6.00 to 6.30
24 | COCCOc1cc(-c2nc(Nc3ncc(-c4cccs4)cc3C(=O)O)sc2CC(C)C)ccc1F [I-59] | 6.00 to 6.30

More lines, now with the values ahead:

Row | pIC50 | SMILES
25 | ≥ 6.30 | COCCOc1ccc(-c2nc(Nc3ncc(-c4cc(C)cs4)cc3C(=O)O)sc2CC(C)C)cc1 [1-35]
26 | ≥ 6.30 | Cc1csc(-c2cnc(Nc3nc(-c4ccc(OC(F)F)cc4)c(CC(C)C)s3)c(C(=O)O)c2)c1 [1-36]
27 | 6.00 to 6.30 | COCCOc1ccc(-c2nc(Nc3ncc(-c4cc(C)cs4)cc3C(=O)O)sc2C2CCCC2)cc1 [1-38]
28 | ≥ 6.30 | Cc1csc(-c2cnc(Nc3nc(-c4ccc(OC(F)F)cc4)c(C4CCCC4)s3)c(C(=O)O)c2)c1 [1-39]
29 | ≥ 6.30 | CC(C)Cc1sc(Nc2ncc(-c3cccs3)cc2C(=O)O)nc1-c1ccc(O)c(Cl)c1 [I-1, 2-((4-(3-chloro-4-hydroxyphenyl)-5-isobutylthiazol-2-yl)amino)-5-(thiophen-2-yl)nicotinic acid]
30 | ≥ 6.30 | COc1c(Cl)cc(-c2nc(Nc3ncc(-c4cccs4)cc3C(=O)O)sc2CC(C)C)cc1Cl [I-4]
31 | ≥ 6.30 | CC(C)Cc1sc(Nc2ncc(-c3cccs3)cc2C(=O)O)nc1-c1ccc(OCC(F)(F)F)cc1 [I-7]
32 | ≥ 6.30 | CC(C)Cc1sc(Nc2ncc(-c3cccs3)cc2C(=O)O)nc1-c1ccc(OC2CC2)cc1 [I-8]
33 | ≥ 6.30 | CC(C)Cc1sc(Nc2ncc(-c3cccs3)cc2C(=O)O)nc1-c1ccc(OC(F)(F)F)c(Cl)c1 [I-9]
34 | ≥ 6.30 | CC(C)Cc1sc(Nc2ncc(-c3cccs3)cc2C(=O)O)nc1-c1ccc(OC(F)(F)F)c(F)c1 [I-10]
35 | ≥ 6.30 | CCOc1ccc(-c2nc(Nc3ncc(-c4cccs4)cc3C(=O)O)sc2CC(C)C)cc1 [I-11]
36 | 6.00 to 6.30 | COc1ccc(-c2nc(Nc3cc(-c4ccccc4)sc3C(=O)O)sc2CC(C)C)cc1 [I-12]
37 | 6.00 to 6.30 | CC(C)Cc1sc(Nc2cc(-c3ccccc3)sc2C(=O)O)nc1-c1ccc(OC2CC2)cc1 [I-14]
38 | ≥ 6.30 | COCCOc1ccc(-c2nc(Nc3ncc(-c4cccs4)cc3C(=O)O)sc2CC(C)C)cc1 [I-16]
39 | ≥ 6.30 | CC(C)Cc1sc(Nc2ncc(-c3cccs3)cc2C(=O)O)nc1-c1ccc(OCC(N)=O)cc1 [I-17, 2-((4-(4-(2-amino-2-oxoethoxy)phenyl)-5-isobutylthiazol-2-yl)amino)-5-(thiophen-2-yl)nicotinic acid]
40 | ≥ 6.30 | COCCOc1ccc(-c2nc(Nc3ncc(-c4ccc(C)s4)cc3C(=O)O)sc2CC(C)C)cc1 [I-34]
41 | ≥ 6.30 | COCCOc1ccc(-c2nc(Nc3ncc(-c4ccc(C)s4)cc3C(=O)O)sc2C2CCCC2)cc1 [I-37]

Row | pIC50 | SMILES
42 | ≥ 6.30 | Cc1ccc(-c2cnc(Nc3nc(-c4ccc(OC(F)F)cc4)c(C4CCCC4)s3)c(C(=O)O)c2)s1 [I-40]
43 | ≥ 6.30 | COCCOc1ccc(-c2nc(Nc3ncc(-c4ccc(C)s4)cc3C(=O)O)sc2CC(C)C)cc1F [I-41]
44 | ≥ 6.30 | COCCOc1ccc(-c2nc(Nc3ncc(-c4cc(C)cs4)cc3C(=O)O)sc2CC(C)C)cc1F [I-42]
45 | ≥ 6.30 | COCCOc1ccc(-c2nc(Nc3ncc(-c4ccc(C)s4)cc3C(=O)O)sc2CC(C)C)cc1Cl [I-43]
46 | ≥ 6.30 | COCCOc1ccc(-c2nc(Nc3ncc(-c4cc(C)cs4)cc3C(=O)O)sc2CC(C)C)cc1Cl [I-44]
47 | ≥ 6.30 | COCCOc1ccc(-c2nc(Nc3ncc(-c4cccs4)cc3C(=O)O)sc2CCC(C)C)cc1Cl [I-45]
48 | ≥ 6.30 | COCCOc1ccc(-c2nc(Nc3ncc(-c4cccs4)cc3C(=O)O)sc2CCC(C)C)cc1F [I-46]
49 | ≥ 6.30 | COCCCOc1ccc(-c2nc(Nc3ncc(-c4cccs4)cc3C(=O)O)sc2CC(C)C)cc1F [I-47]
50 | ≥ 6.30 | COCCCOc1ccc(-c2nc(Nc3ncc(-c4cccs4)cc3C(=O)O)sc2CC(C)C)cc1Cl [I-48]
51 | ≥ 6.30 | COCCOc1ccc(-c2nc(Nc3ncc(-c4nccs4)cc3C(=O)O)sc2CC(C)C)cc1F [I-51]
52 | ≥ 6.30 | COCCOc1ccc(-c2nc(Nc3ncc(-c4cccc(F)c4)cc3C(=O)O)sc2CC(C)C)cc1F [I-52]
53 | ≥ 6.30 | COCCOc1ccc(-c2nc(Nc3ncc(-c4cccs4)nc3C(=O)O)sc2CC(C)C)cc1F [I-54]
54 | ≥ 6.30 | COCCOc1ccc(-c2nc(Nc3ncc(-c4cccs4)cc3C(=O)O)sc2CC(C)C)cc1C(F)(F)F [I-58]
55 | ≥ 6.30 | COc1ccc(-c2nc(Nc3ncc(-c4cccs4)nc3C(=O)O)sc2CC(C)C)cc1F [I-60, 3-((4-(3-fluoro-4-methoxyphenyl)-5-isobutylthiazol-2-yl)amino)-6-(thiophen-2-yl)pyrazine-2-carboxylic acid]
56 | ≥ 6.30 | COc1ccc(-c2nc(Nc3ncc(-c4cccs4)nc3C(=O)O)sc2CCC(C)C)cc1Cl [I-61]
57 | ≥ 6.30 | COc1ccc(-c2nc(Nc3ncc(-c4cccs4)nc3C(=O)O)sc2CCC(C)C)cc1F [I-62]
58 | ≥ 6.30 | COCCOc1ccc(-c2nc(Nc3ccc(-c4cccs4)cc3C(=O)O)sc2CC(C)C)cc1F [I-64]
